Values of other authors in US20180185509A1, “AMATOXIN-CONJUGATES WITH IMPROVED LINKAGES” (Heidelberg Pharma GmbH, priority 2011, published 2018).

Molecular target: RNA-polymerase II (Homo sapiens, UniProt P24928)
Conditions: read-out: KD of the complex between amanitin and RNA-polymerase II

amanitin
Kd: 3 nM
